# From PMC5045374 (Oncotarget, 2016)
# Tests used:
# [1] = system: CLB-GE (ALK-F1174V, ALK addicted) neuroblastoma cells; assay: Proliferation assay (resazurin cell viability), CLB-GE; type: cell-based; conditions: Homo sapiens, 72 hours, read-out: IC50 (cell growth)
# Experimental: (§1) Cells were seeded at 15,000 per well with serial dilutions of the indicated inhibitors. After 72 hours cell viability was assessed by resazurin (Sigma, Sweden). IC50 values were calculated with GraphPad Prism 6.0 by fitting data to a log (inhibitor concentration) vs. normalized response (variable slope) equation. Each experiment was performed in duplicate and repeated at least three times.
# [2] = system: CLB-PE (ALK-WT, non-ALK addicted) neuroblastoma cells; assay: Proliferation assay (resazurin cell viability), CLB-PE; type: cell-based, human; conditions: 72 hours
# Experimental: as §1
# ALK mutants = assay: Neurite outgrowth assay in PC12 cells, ALK mutants; type: cell-based, human
# Experimental: PC12 cells (2 x10^6) co-transfected, in 100 μl of Ingenio electroporation solution (Minus Bio LCC), with pEGFPN1 (Clonetech) (0.5 ng) and ALK-mutant (0.75 ng) or ALK-wt (0.75 ng) as indicated were seeded sparingly into 24-well plates. ALK-wild type was stimulated with 1 μg/ml mAb31. After 48 hours post transfection, the fraction of GFP-positive and neurite carrying cells versus GFP-positive cells were analyzed under a Zeiss Axiovert 40 CFL microscope. A cell was considered as neurite-carrying if it had neurite(s) that reached at least twice the length of the diameter of a normal cell body. The experiments were performed at least three times in triplicates.
# [3] = inferred from CNS responses in NSCLC patients; cited from earlier work
# CLB-BAR cells = assay: Xenograft neuroblastoma model in vivo; parameters: species or system BalbC/NUDE mice
# Text: In the first investigation mice (n=3) were employed and in the second investigation mice (n=5) were employed. […] In the second investigation where 5 mice were employed a subset of mice (n=2) were released from treatment after 14 days, for a further 8 days (blue curve). […] C. […] Data are means +/− SE from 8 tumours, p values indicated; Student's t test.
# Female Balbc/nude mice (Charles River, Germany) at 5-6 weeks age were maintained in a pathogen-free environment. For xenografts, 2.5 million CLB-BAR cells (MYCN amplified, ALK (Δ4-11) amplified) were injected subcutaneously. Once tumor volume achieved about 50mm^3, drug was given at 50 mg/kg body weight, by oral gavage, once daily, continuously for 14 days. Mice were grouped by tumor volume randomly. Tumor volume was calculated with the following equation: V=0.5236×L×W^2 (V=volume, L=longest, W=width).
# Mice were sacrificed and tumors were collected. Tumors were fixed in 4% PFA, followed by 15% and 30% sucrose in PBS. Tumors were embedded in OCT compound (VWR chemicals) and frozen at −80°C. […] Secondary antibodies (Cell Signaling Tech., Danver, MA) were applied for 2 hours at room temperature. Impact DAB (Vector Laboratories, SK 4105) was employed for staining followed by hematoxylin cross-staining (Sigma-Aldrich). After mounting sections, images were taken using an Axio zoom V16 stereo microscope (Zeiss).
# [4] = system: IMR32 (ALK-WT, non-ALK addicted) neuroblastoma cells; assay: Proliferation assay (resazurin cell viability), IMR32; type: cell-based, human; conditions: IMR32, 72 hours
# Experimental: as §1
# ALK-positive NSCLC = conditions: cited from earlier work
# [5] = system: CLB-BAR (ALK-Δ4-11, ALK addicted) neuroblastoma cells; assay: Proliferation assay (resazurin cell viability), CLB-BAR; type: cell-based; conditions: Homo sapiens, 72 hours, read-out: IC50 (cell growth)
# Experimental: as §1
# [6] = system: neuroblastoma tumor growth; conditions: orthotopic xenograft tumor growth and TH-ALKF1174L/TH-MYCN mouse model; cited from earlier work
# [7] = immunoblotting, vs control group
smiles,measurement,setting,value
COc1cc(N2CCC(N3CCN(C)CC3)CC2)ccc1Nc1ncc(Cl)c(Nc2ccccc2P(C)(C)=O)n1 [brigatinib],IC50,[1],100 ± 17.5 nM
same,inhibition of cell growth,[2],Neither brigatinib nor crizotinib was able to inhibit growth
same,block of neurite outgrowth compared with crizotinib,"ALK mutants; ALK-G1269A, ALK-R1275 and ALK-R1192P, brigatinib 15 and 30 nM vs crizotinib 250 nM",more efficiently than crizotinib
same,neurite outgrowth of all tested ALK mutants,"ALK mutants; PC12 cells, 48 hours",could abrogate neurite outgrowth
same,blood-brain barrier penetration,[3],able to penetrate the blood-brain barrier
same,tumor weight,"CLB-BAR cells; 50 mg/kg once daily oral gavage, 14 days, vs controls, p=0.01",significantly reduced
same,tumor volume / tumor growth,"CLB-BAR cells; 50 mg/kg once daily oral gavage, 14 days, vs vehicle, p=0.0004",considerably inhibits proliferation of tumor growth
same,side effect in vivo,"CLB-BAR cells; 50 mg/kg once daily, 14 days",no obvious side effect
same,body weight of mice,"CLB-BAR cells; 50 mg/kg once daily, 14 days, p=0.9",did not show any variation
same,MYCN protein levels in tumor material,CLB-BAR cells; [7],decreased protein levels
same,phospho-ALK levels in tumor material,CLB-BAR cells; [7],decreased phospho-ALK levels
same,phosphorylated ERK5 and AKT in tumor material,CLB-BAR cells; [7],reduced phosphorylation
same,total ALK protein levels in tumor material,CLB-BAR cells; [7],No obvious change
same,tumor volume/growth after discontinuation of treatment,"CLB-BAR cells; treatment discontinued after 14 days, for 8 days, n=2",increase in tumor volume/growth
same,Ki-67 proliferation marker in excised tumor,"CLB-BAR cells; vs controls, p=0.0005",significantly reduced proliferation
same,inhibition of cell growth,[4],Neither brigatinib nor crizotinib was able to inhibit growth
same,patients with non-measureable CNS lesions with disappearance of all lesions,ALK-positive NSCLC; 8/26 patients,31%
same,patients responding to treatment,ALK-positive NSCLC; crizotinib refractory ALK-positive NSCLC patients,about 72%
same,response in patients with baseline CNS metastases,"ALK-positive NSCLC; radiological review, 6/12 patients",50%
same,IC50,[5],75.3 ± 8.89 nM
C[C@@H](Oc1cc(-c2cnn(C3CCNCC3)c2)cnc1N)c1c(Cl)ccc(F)c1Cl [crizotinib],efficacy as a single agent treatment,[6],limited efficacy
